Laboratory results as given in US11998539B2, “Substituted aminoquinolones as DGKalpha inhibitors for immune activation” (Bayer Aktiengesellschaft, priority 2019, dated 2024).

Target: DGKα (Homo sapiens (Human), UniProt P23743)
Experiment: Human DGKα kinase activity inhibition assay (ADP-Glo)
Assay type: biochemical
Conditions: recombinant full-length human DGKα, 55 μM ATP, 7 μM 1,2-dioleoyl-sn-glycerol, read-out: IC50 values of examples in in vitro human DGKa kinase activity inhibition assays
Procedure, shortened: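 Recombinant full-length human DGKα (C-terminal FLAG, from insect cells) phosphorylated 1,2-dioleoyl-sn-glycerol presented in octyl-glucopyranoside micelles. ADP formed was quantified by ADP-Glo luminescence. Compounds were added from 100-fold DMSO stocks.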

Chain of DGKα (P23743 other isoform, or with tags, fused parts or gaps): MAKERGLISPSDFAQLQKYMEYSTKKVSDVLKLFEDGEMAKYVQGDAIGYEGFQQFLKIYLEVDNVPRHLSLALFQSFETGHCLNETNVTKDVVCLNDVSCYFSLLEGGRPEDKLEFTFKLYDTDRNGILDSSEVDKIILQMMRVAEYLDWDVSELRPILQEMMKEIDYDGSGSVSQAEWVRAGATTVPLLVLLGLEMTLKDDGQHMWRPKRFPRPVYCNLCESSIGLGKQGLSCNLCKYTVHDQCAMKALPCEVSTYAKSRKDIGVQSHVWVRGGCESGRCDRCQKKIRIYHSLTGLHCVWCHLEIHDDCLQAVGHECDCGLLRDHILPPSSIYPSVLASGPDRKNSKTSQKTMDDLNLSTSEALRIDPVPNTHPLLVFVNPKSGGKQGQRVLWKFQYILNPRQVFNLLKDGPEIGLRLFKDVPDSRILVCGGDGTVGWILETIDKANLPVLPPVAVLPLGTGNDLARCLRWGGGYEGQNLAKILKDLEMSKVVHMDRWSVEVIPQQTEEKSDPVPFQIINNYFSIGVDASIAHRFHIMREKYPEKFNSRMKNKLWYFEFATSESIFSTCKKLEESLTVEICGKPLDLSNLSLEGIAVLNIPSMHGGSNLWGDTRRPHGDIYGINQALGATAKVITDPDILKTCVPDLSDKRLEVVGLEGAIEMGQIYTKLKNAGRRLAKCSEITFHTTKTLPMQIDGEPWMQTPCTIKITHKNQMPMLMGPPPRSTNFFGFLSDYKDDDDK

Row | Structure (SMILES) | IC50 [nM]
1 | Cc1ccc2oc(C3(C)CCN(c4c(C#N)c(=O)n(C)c5cc(OC6CC6)ccc45)CC3)nc2c1 [Example 244, 7-(cyclopropyloxy)-1-methyl-4-[4-methyl-4-(5-methyl-1,3-benzoxazol-2-yl)piperidin-1-yl]-2-oxo-1,2-dihydroquinoline-3-carbonitrile] | 4.6
2 | Cc1ccc2oc(C3CCN(c4c(C#N)c(=O)n(C)c5ccc(C6CCC6)cc45)CC3)nc2c1 [Example 409, 6-cyclobutyl-1-methyl-4-[4-(5-methyl-1,3-benzoxazol-2-yl)piperidin-1-yl]-2-oxo-1,2-dihydroquinoline-3-carbonitrile] | 8.4
3 | CCCOc1ccc2c(N3CCC(c4nc5ccccc5s4)CC3)c(C#N)c(=O)n(C)c2c1 [Example 270, 4-[4-(1,3-benzothiazol-2-yl)piperidin-1-yl]-1-methyl-2-oxo-7-propoxy-1,2-dihydroquinoline-3-carbonitrile] | 72
4 | Cn1c(=O)c(C#N)c(N2CCC(c3nc4ccc(Cl)cc4o3)CC2)c2ccccc21 [Example 9, 4-[4-(6-chloro-1,3-benzoxazol-2-yl)piperidin-1-yl]-1-methyl-2-oxo-1,2-dihydroquinoline-3-carbonitrile] | 3.3
5 | Cn1c(=O)c(C#N)c(N2CCC(c3cccc4nccnc34)CC2)c2ccccc21 [Example 79, 1-methyl-2-oxo-4-[4-(quinoxalin-5-yl)piperidin-1-yl]-1,2-dihydroquinoline-3-carbonitrile] | 104
6 | Cn1c(=O)c(C(N)=O)c(N2CCC(c3nc4ccccc4o3)CC2)c2cccc(Cl)c21 [Example 309, 4-[4-(1,3-benzoxazol-2-yl)piperidin-1-yl]-8-chloro-1-methyl-2-oxo-1,2-dihydroquinoline-3-carboxamide] | 101
7 | Cc1ccc2oc(C3CCN(c4c(C#N)c(=O)n(C)c5cc(F)ccc45)CC3)nc2c1 [Example 238, 7-fluoro-1-methyl-4-[4-(5-methyl-1,3-benzoxazol-2-yl)piperidin-1-yl]-2-oxo-1,2-dihydroquinoline-3-carbonitrile] | 12
8 | Cc1ccc2oc(C3CCN(c4c(C#N)c(=O)n(C)c5cc(OCC(N)=O)ccc45)CC3)nc2c1 [Example 413, 2-({3-cyano-1-methyl-4-[4-(5-methyl-1,3-benzoxazol-2-yl)piperidin-1-yl]-2-oxo-1,2-dihydroquinolin-7-yl}oxy)acetamide] | 1
9 | Cn1c(=O)c(C#N)c(N2CCC(C)(c3ccccc3)CC2)c2ccccc21 [Example 58, 1-methyl-4-(4-methyl-4-phenylpipehdin-1-yl)-2-oxo-1,2-dihydroquinoline-3-carbonitrile] | 2.6
10 | Cc1ccccc1-c1nnc(C2CCN(c3c(C(N)=O)c(=O)n(C)c4cc(O)c(Br)cc34)CC2)o1 [Example 529, 6-bromo-7-hydroxy-1-methyl-4-{4-[5-(2-methylphenyl)-1,3,4-oxadiazol-2-yl]piperidin-1-yl}-2-oxo-1,2-dihydroquinoline-3-carboxamide] | 46
11 | Cc1ccc2oc([C@H]3CCN(c4c(C#N)c(=O)n(C)c5ccccc45)[C@@H](C)C3)nc2c1 [Example 326, 1-methyl-4-[(2S,4S)-2-methyl-4-(5-methyl-1,3-benzoxazol-2-yl)-1-piperidyl]-2-oxo-quinoline-3-carbonitrile] | 34
12 | COC1(c2cc3ccccc3s2)CCN(c2c(C(N)=O)c(=O)n(C)c3ccccc23)CC1 [Example 455, 4-[4-(1-benzothiophen-2-yl)-4-methoxypiperidin-1-yl]-1-methyl-2-oxo-1,2-dihydroquinoline-3-carboxamide] | 1.9
13 | COc1ccc(C2CCN(c3c(C#N)c(=O)n(C)c4ccc(S(C)(=O)=O)cc34)CC2)cc1 [Example 178, 6-(methanesulfonyl)-4-[4-(4-methoxyphenyl)piperidin-1-yl]-1-methyl-2-oxo-1,2-dihydroquinoline-3-carbonitrile] | 298
14 | COc1cc2c(cc1C)c(N1CCC(c3nc4cc(C)ccc4o3)CC1)c(C#N)c(=O)n2C [Example 419, 7-methoxy-1,6-dimethyl-4-[4-(5-methyl-1,3-benzoxazol-2-yl)piperidin-1-yl]-2-oxo-1,2-dihydroquinoline-3-carbonitrile] | 4.6
15 | Cc1ccc2oc(C3CCN(c4c(C#N)c(=O)n(C)c5c(Br)cccc45)CC3)nc2c1 [Example 397, 8-bromo-1-methyl-4-[4-(5-methyl-1,3-benzoxazol-2-yl)piperidin-1-yl]-2-oxo-1,2-dihydroquinoline-3-carbonitrile] | 399
16 | Cn1c(=O)c(C#N)c(N2CCC(c3nc4ccc(Cl)cc4o3)CC2)c2cccc(Br)c21 [Example 157, 8-bromo-4-[4-(6-chloro-1,3-benzoxazol-2-yl)piperidin-1-yl]-1-methyl-2-oxo-1,2-dihydroquinoline-3-carbonitrile] | 252
17 | Cn1c(=O)c(C#N)c(N2CCC(c3cccc(Cl)c3)CC2)c2ccccc21 [Example 325, 4-[4-(3-chlorophenyl)piperidin-1-yl]-1-methyl-2-oxo-1,2-dihydroquinoline-3-carbonitrile] | 26

Row | Structure (SMILES) | IC50 [nM]
18 | COc1ccccc1-c1csc(C2CCN(c3c(C(N)=O)c(=O)n(C)c4ccccc34)CC2)n1 [Example 477, 4-{4-[4-(2-methoxyphenyl)-1,3-thiazol-2-yl]piperidin-1-yl}-1-methyl-2-oxo-1,2-dihydroquinoline-3-carboxamide] | 3.9
19 | Cc1ccc2oc(C3(C)CCN(c4c(C(N)=O)c(=O)n(C)c5ccccc45)CC3)nc2c1 [Example 302, 1-methyl-4-[4-methyl-4-(5-methyl-1,3-benzoxazol-2-yl)piperidin-1-yl]-2-oxo-1,2-dihydroquinoline-3-carboxamide] | 1.1
20 | COc1ccccc1C1CCN(c2c(C#N)c(=O)n(C)c3ccccc23)CC1 [Example 52, 4-[4-(2-methoxyphenyl)piperidin-1-yl]-1-methyl-2-oxo-1,2-dihydroquinoline-3-carbonitrile] | 8.8
21 | Cc1ccccc1-c1noc(C2CCN(c3c(C#N)c(=O)n(C)c4ccccc34)CC2)n1 [Example 348, 1-methyl-4-{4-[3-(2-methylphenyl)-1,2,4-oxadiazol-5-yl]piperidin-1-yl}-2-oxo-1,2-dihydroquinoline-3-carbonitrile] | 7.9
22 | Cn1c(=O)c(C#N)c(N2CCC(c3nc4ccc(F)cc4o3)CC2)c2ccccc21 [Example 4, 4-[4-(6-fluoro-1,3-benzoxazol-2-yl)piperidin-1-yl]-1-methyl-2-oxo-1,2-dihydroquinoline-3-carbonitrile] | 2.8
23 | Cc1ccc2oc(C3(C)CCN(c4c(C(N)=O)c(=O)n(C)c5ccc(N6C[C@H](O)CC6=O)cc45)CC3)nc2c1 [Example 280, 6-[(4R)-4-hydroxy-2-oxopyrrolidin-1-yl]-1-methyl-4-[4-methyl-4-(5-methyl-1,3-benzoxazol-2-yl)piperidin-1-yl]-2-oxo-1,2-dihydroquinoline-3-carboxamide] | 4740
24 | Cc1ccc2c(N3CCC(C)(c4nc5ccccc5o4)CC3)c(C#N)c(=O)n(C)c2c1 [Example 218, 4-[4-(1,3-benzoxazol-2-yl)-4-methylpiperidin-1-yl]-1,7-dimethyl-2-oxo-1,2-dihydroquinoline-3-carbonitrile] | 0.6
25 | COc1ccc(C2CCN(c3c(C#N)c(=O)n(C)c4ccccc34)CC2)cc1OC [Example 324, 4-[4-(3,4-dimethoxyphenyl)piperidin-1-yl]-1-methyl-2-oxo-1,2-dihydroquinoline-3-carbonitrile] | 14
26 | Cn1c(=O)c(C(N)=O)c(N2CCC(C)(c3nc4ccccc4o3)CC2)c2cc(F)ccc21 [Example 296, 4-[4-(1,3-benzoxazol-2-yl)-4-methylpiperidin-1-yl]-6-fluoro-1-methyl-2-oxo-1,2-dihydroquinoline-3-carboxamide] | 0.5
27 | C=C(c1ccc2c(c1)c(N1CCC(c3nc4cc(C)ccc4o3)CC1)c(C#N)c(=O)n2C)C(F)(F)F [Example 411, 1-methyl-4-[4-(5-methyl-1,3-benzoxazol-2-yl)piperidin-1-yl]-2-oxo-6-(3,3,3-trifluoroprop-1-en-2-yl)-1,2-dihydroquinoline-3-carbonitrile] | 5.1
28 | COc1ccc(-c2noc(C3CCN(c4c(C(N)=O)c(=O)n(C)c5ccccc45)CC3)n2)cc1 [Example 459, 4-{4-[3-(4-methoxyphenyl)-1,2,4-oxadiazol-5-yl]piperidin-1-yl}-1-methyl-2-oxo-1,2-dihydroquinoline-3-carboxamide] | 9.8
29 | Cc1ccc2oc(C3(C)CCN(c4c(C#N)c(=O)n(C)c5c(C#N)cccc45)CC3)nc2c1 [Example 163, 1-methyl-4-[4-methyl-4-(5-methyl-1,3-benzoxazol-2-yl)piperidin-1-yl]-2-oxo-1,2-dihydroquinoline-3,8-dicarbonitrile] | 146
30 | COc1ccc(C2CCN(c3c(C#N)c(=O)n(C)c4ccccc34)CC2)cn1 [Example 142, 4-[4-(6-methoxypyridin-3-yl)piperidin-1-yl]-1-methyl-2-oxo-1,2-dihydroquinoline-3-carbonitrile] | 58
31 | Cc1ccc2oc(C3(C)CCN(c4c(C#N)c(=O)n(C)c5c(OC6CC6)cccc45)CC3)nc2c1 [Example 262, 8-(cyclopropyloxy)-1-methyl-4-[4-methyl-4-(5-methyl-1,3-benzoxazol-2-yl)piperidin-1-yl]-2-oxo-1,2-dihydroquinoline-3-carbonitrile] | 36
32 | Cc1ccc(C2CCN(c3c(C#N)c(=O)n(C)c4ccccc34)CC2)cn1 [Example 143, 1-methyl-4-[4-(6-methylpyridin-3-yl)piperidin-1-yl]-2-oxo-1,2-dihydroquinoline-3-carbonitrile] | 554
33 | Cc1ccc2oc(C3(C)CCN(c4c(C#N)c(=O)n(C)c5cc(C#N)ccc45)CC3)nc2c1 [Example 249, 1-methyl-4-[4-methyl-4-(5-methyl-1,3-benzoxazol-2-yl)piperidin-1-yl]-2-oxo-1,2-dihydroquinoline-3,7-dicarbonitrile] | 7.2
